Tests used:
Format in all cases: ADME
[1] = target: T1, Cytochrome P450 1A2 (Homo sapiens, UniProt P05177); assay: Inhibition of CYP1A2 (unknown origin)
T1 sequence (P05177 whole entry): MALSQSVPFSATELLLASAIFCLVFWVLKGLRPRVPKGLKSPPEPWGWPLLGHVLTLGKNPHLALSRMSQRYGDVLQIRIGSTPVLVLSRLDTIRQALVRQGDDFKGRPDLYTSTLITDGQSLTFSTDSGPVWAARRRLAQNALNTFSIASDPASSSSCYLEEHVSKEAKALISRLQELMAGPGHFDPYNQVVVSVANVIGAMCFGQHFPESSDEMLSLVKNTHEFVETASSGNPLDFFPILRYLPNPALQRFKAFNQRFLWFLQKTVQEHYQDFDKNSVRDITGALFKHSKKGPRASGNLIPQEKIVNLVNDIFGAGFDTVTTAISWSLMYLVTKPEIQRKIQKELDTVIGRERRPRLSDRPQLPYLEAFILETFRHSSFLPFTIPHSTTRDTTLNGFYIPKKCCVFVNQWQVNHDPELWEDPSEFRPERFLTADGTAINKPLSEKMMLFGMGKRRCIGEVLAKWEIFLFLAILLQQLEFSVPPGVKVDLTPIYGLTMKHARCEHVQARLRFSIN

[2] = target: T2, Cytochrome P450 2B6 (Homo sapiens, UniProt P20813); assay: Inhibition of CYP2B6 (unknown origin)
T2 sequence (P20813 whole entry): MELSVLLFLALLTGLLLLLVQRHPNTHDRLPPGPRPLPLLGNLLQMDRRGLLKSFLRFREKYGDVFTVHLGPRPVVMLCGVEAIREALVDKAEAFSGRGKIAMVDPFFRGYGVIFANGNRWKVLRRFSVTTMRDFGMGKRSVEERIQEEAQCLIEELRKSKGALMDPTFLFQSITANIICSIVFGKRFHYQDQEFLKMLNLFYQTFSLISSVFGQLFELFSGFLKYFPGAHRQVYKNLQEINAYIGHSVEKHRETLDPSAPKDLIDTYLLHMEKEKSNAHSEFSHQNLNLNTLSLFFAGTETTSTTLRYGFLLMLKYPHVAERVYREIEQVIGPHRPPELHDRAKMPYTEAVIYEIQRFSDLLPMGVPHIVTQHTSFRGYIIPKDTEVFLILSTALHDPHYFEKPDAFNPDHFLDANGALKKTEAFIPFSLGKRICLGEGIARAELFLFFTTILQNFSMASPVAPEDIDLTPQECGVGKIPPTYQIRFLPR

[3] = target: T3, Cytochrome P450 2C8 (Homo sapiens, UniProt P10632); assay: Inhibition of CYP2C8 (unknown origin)
T3 sequence (P10632 whole entry): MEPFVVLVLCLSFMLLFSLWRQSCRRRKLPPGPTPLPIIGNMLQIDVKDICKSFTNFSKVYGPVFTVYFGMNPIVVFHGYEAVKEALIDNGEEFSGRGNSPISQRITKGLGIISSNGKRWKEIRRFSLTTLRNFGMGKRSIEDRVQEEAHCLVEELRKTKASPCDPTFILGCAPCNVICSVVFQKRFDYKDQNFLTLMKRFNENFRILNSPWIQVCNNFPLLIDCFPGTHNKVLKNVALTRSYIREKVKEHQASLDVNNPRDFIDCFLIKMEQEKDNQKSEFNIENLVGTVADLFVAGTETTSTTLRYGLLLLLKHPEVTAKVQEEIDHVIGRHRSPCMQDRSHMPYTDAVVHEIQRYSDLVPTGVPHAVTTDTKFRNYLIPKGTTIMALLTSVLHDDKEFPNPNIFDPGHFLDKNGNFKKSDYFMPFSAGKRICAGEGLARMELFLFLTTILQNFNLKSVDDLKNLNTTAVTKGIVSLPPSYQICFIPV

[4] = target: Cytochrome P450 2C9 (Homo sapiens, UniProt P11712); assay: Inhibition of CYP2C9 (unknown origin)
[5] = target: Cytochrome P450 2D6 (Homo sapiens, UniProt P10635); assay: Inhibition of CYP2D6 (unknown origin)
[6] = target: Cytochrome P450 3A4 (Homo sapiens, UniProt P08684); assay: Inhibition of CYP3A4 (unknown origin)
Cytochrome P450 3A4, sequence (P08684 whole entry): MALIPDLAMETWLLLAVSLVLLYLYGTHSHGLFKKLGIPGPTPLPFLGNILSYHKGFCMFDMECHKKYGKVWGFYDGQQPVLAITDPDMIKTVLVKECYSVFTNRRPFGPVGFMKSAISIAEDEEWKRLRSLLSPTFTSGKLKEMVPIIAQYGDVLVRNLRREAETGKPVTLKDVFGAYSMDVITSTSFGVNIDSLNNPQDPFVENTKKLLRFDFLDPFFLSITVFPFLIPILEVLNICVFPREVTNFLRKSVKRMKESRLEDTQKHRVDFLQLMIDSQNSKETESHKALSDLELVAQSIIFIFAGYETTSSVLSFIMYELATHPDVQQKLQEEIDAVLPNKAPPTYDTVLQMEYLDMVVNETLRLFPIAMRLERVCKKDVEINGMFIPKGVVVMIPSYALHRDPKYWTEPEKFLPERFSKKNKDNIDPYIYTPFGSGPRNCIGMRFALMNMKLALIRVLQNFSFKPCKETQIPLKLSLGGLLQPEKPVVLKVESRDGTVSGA

Cytochrome P450 2D6, sequence (P10635 whole entry): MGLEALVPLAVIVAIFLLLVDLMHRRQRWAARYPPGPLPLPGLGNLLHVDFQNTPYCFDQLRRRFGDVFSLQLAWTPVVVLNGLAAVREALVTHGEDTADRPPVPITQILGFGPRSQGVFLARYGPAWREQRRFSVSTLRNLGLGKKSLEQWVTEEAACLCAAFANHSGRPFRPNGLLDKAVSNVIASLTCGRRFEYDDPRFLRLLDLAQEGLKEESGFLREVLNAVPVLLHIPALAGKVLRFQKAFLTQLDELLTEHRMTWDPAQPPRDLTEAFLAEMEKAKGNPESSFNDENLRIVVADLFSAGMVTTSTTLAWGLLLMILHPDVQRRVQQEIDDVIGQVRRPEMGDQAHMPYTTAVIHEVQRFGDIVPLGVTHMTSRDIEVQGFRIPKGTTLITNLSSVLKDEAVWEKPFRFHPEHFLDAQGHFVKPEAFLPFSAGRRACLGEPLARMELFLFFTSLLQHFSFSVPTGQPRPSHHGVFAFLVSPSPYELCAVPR
Cytochrome P450 2C9, sequence (P11712 whole entry): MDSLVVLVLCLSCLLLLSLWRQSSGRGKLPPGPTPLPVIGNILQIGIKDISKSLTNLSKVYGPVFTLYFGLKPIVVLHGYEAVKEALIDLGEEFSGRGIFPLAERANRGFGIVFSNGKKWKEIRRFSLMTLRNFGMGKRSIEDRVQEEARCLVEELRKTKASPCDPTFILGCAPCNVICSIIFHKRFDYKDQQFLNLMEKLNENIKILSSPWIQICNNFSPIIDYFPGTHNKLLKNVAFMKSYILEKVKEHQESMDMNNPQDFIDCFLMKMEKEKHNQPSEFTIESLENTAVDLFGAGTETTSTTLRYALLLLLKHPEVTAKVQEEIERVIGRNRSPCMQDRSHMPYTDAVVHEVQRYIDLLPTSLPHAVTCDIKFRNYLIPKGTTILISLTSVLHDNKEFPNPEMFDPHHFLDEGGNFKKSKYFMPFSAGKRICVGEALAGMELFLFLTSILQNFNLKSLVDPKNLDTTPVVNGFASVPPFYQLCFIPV

IC50 [1]: > 10 µM | IC50 [2]: > 10 µM | IC50 [3]: > 10 µM | IC50 [4]: > 10 µM | IC50 [5]: > 10 µM | IC50 [6]: > 10 µM
SMILES: Clc1ccc2c(c1)CC1(Cc3nnc([C@H]4CC[C@H](Oc5ccccn5)CC4)n3-2)OCCO1

— ChEMBL document CHEMBL5532679, “Discovery and Characterization of RGH-122, a Potent, Selective, and Orally Bioavailable V1a Receptor Antagonist” (J Med Chem, 2024)
